# Literature values, collected in US7964202B2, “Method for treatment of common acne” (Galderma Research & Development, S.N.C., priority 2001, dated 2011).
# Where two headings read alike, the source gives them in different places.
# What was measured:
# [1] = for degradation time: 40° C.
# [2] = in presence of benzoyl peroxide formulation
Compound,Benzoyl peroxide solubility (solvent PEG 400),Benzoyl peroxide solubility (solvent ethanol),Benzoyl peroxide solubility (solvent glycerol),Benzoyl peroxide solubility (solvent propylene glycol),Benzoyl peroxide solubility (solvent propylene glycol/water (75:25)),Benzoyl peroxide solubility (solvent water),degradation time ([1]; in solution in PEG 400 (0.5 mg/g)),degradation time ([1]; in solution in ethanol),degradation time ([1]; in solution in propylene glycol),"degradation in suspension (dispersed form) ([1]; in water and propylene glycol, storage for 90 days)",retinoid degraded ([2]; 24 hours),retinoid degraded ([2]; 2 hours)
O=C(OOC(=O)c1ccccc1)c1ccccc1 [Benzoyl peroxide],39.6 mg/g,17.9 mg/g,0.15 mg/g,2.95 mg/g,0.36 mg/g,0.000155 mg/g,1.4 days,29 days,53 days,not degraded,,
COc1ccc(-c2ccc3cc(C(=O)O)ccc3c2)cc1C12CC3CC(CC(C3)C1)C2 [adapalene],,,,,,,,,,,no degradation,
CC1=C(/C=C/C(C)=C/C=C/C(C)=C/C(=O)O)C(C)(C)CCC1 [tretinoin],,,,,,,,,,,95%,50%
